Results on six compounds are retold here after ChEMBL document CHEMBL4513137, “CO-ADD screening of University of Manchester (UK) compounds”.

SMILES strings stand for the structures. ≈ marks a conversion by molar mass, not a printed value. A value given as a limit tells only on which side of the number the result lay.

The test system of one test is Escherichia coli. Put plainly: microbe, parasite or virus in culture. The conditions noted are these: ATCC 25922, 18 h, ASSAY_TEST Inhibition of Bacterial Growth, detection method Absorption (OD600), MEDIA CAMHB, plate type 384well, NBS, CORNING #3640.
Another test concerns Staphylococcus aureus. Put plainly: microbe, parasite or virus in culture. The conditions noted are these: ATCC 43300, 18 h, ASSAY_TEST Inhibition of Bacterial Growth, detection method Absorption (OD600), MEDIA CAMHB, plate type 384well, NBS, CORNING #3640.
A further test has as its system HEK293. Put plainly: cells. The class given is functional. The note with it: Homo sapiens, ATCC CRL1573, HEK293; ASSAY_TEST Inhibition of Cell Viability; detection method Resazurin; Fluorescence (ex560/em590); MEDIA DMEM with 10% FBS; plate type 384well; TC; CORNING #3712; time 18 hr.
The subject of another test is Acinetobacter baumannii. Put plainly: microbe, parasite or virus in culture. The conditions noted are these: ATCC 19606, 18 h, ASSAY_TEST Inhibition of Bacterial Growth, detection method Absorption (OD600), MEDIA CAMHB, plate type 384well, NBS, CORNING #3640.
Another test has as its system Candida albicans. The test can be described thus: microbe, parasite or virus in culture. The note with it: ATCC 90028, ASSAY_TEST Inhibition of Fungal Growth, detection method Absorption (OD530), plate type 384well, NBS, CORNING #3640.
For another test, the system named is Pseudomonas aeruginosa. Put plainly: microbe, parasite or virus in culture. The note with it: ATCC 27853, 18 h, ASSAY_TEST Inhibition of Bacterial Growth, detection method Absorption (OD600), MEDIA CAMHB, plate type 384well, NBS, CORNING #3640.
In a further test the test system is Klebsiella pneumoniae. Put plainly: microbe, parasite or virus in culture. The conditions noted are these: ATCC 700603, 18 h, ASSAY_TEST Inhibition of Bacterial Growth, detection method Absorption (OD600), MEDIA CAMHB, plate type 384well, NBS, CORNING #3640.

Description for Acinetobacter baumannii: Antibacterial activity against Acinetobacter baumannii ATCC 19606 (CO-ADD:GN_034); MIC in CAMBH media using NBS plates, by OD600
Description for Candida albicans: Antifungal activity against Candida albicans ATCC 90028 (CO-ADD:FG_001); MIC in YNB media using NBS plates, by OD630
Description for Cryptococcus neoformans: Antifungal activity against Cryptococcus neoformans H99 ATCC 208821 (CO-ADD:FG_002); MIC in YNB media using NBS plates, by Resazurin OD(600-570)
Description for Escherichia coli: Antibacterial activity against Escherichia coli ATCC 25922 (CO-ADD:GN_001); MIC in CAMBH media using NBS plates, by OD(600)
Description for Klebsiella pneumoniae: Antibacterial activity against Klebsiella pneumoniae MDR ATCC 70063 (CO-ADD:GN_003); MIC in CAMBH media using NBS plates, by OD(600)
Description for Pseudomonas aeruginosa: Antibacterial activity against Pseudomonas aeruginosa ATCC 27853 (CO-ADD:GN_042); MIC in CAMBH media using NBS plates, by OD(600)
Description for Staphylococcus aureus: Antibacterial activity against Staphylococcus aureus MRSA ATCC 43300 (CO-ADD:GP_020); MIC in CAMBH media, using NBS plates, by OD(600)

As to `O=[N+]([O-])c1ccccc1-c1ccccc1N(Cc1ccccc1)c1ccccc1`, the MIC is greater than 32 µg/mL in the test on Escherichia coli; greater than 32 µg/mL in the test on Staphylococcus aureus; greater than 32 µg/mL in the test on Cryptococcus neoformans; greater than 32 µg/mL against Acinetobacter baumannii; 32 µg/mL (≈ 84.1 µM) against Candida albicans; greater than 32 µg/mL with Pseudomonas aeruginosa. The compound also had an MIC in the test with Klebsiella pneumoniae greater than 32 µg/mL. The midpoint of cytotoxicity with HEK293, the CC50, lay at 8.14 µg/mL (≈ 21.4 µM).

For the compound `Cc1ccccc1Nc1ccccc1-c1ccccc1[N+](=O)[O-]`, the MIC against Escherichia coli is greater than 32 µg/mL; with Staphylococcus aureus, 4 µg/mL (≈ 13.1 µM); against Cryptococcus neoformans it was 32 µg/mL (≈ 105 µM); in the test with Acinetobacter baumannii, greater than 32 µg/mL; against Candida albicans, 8 µg/mL (≈ 26.3 µM); against Pseudomonas aeruginosa, greater than 32 µg/mL. In the test with Klebsiella pneumoniae, this compound displayed an MIC greater than 32 µg/mL. Moreover, the CC50 with HEK293 came out at 1.95 µg/mL (≈ 6.41 µM).

Consider `O=[N+]([O-])c1ccccc1-c1ccccc1Nc1ccccc1`, for which the MIC is greater than 32 µg/mL in the test with Escherichia coli; 16 µg/mL (≈ 55.1 µM) in the test on Staphylococcus aureus; 16 µg/mL (≈ 55.1 µM) in the test with Cryptococcus neoformans; greater than 32 µg/mL in the test on Acinetobacter baumannii; 8 µg/mL (≈ 27.6 µM) in the test on Candida albicans; greater than 32 µg/mL in the test with Pseudomonas aeruginosa. The compound further registered an MIC in the test with Klebsiella pneumoniae greater than 32 µg/mL. The compound also returned a cytotoxic concentration (CC50) in the test with HEK293 of 2.15 µg/mL (≈ 7.41 µM).

With `Cc1cc(C)c(Nc2ccccc2-c2ccccc2[N+](=O)[O-])c(C)c1`, the MIC in the test on Escherichia coli is greater than 32 µg/mL; with Staphylococcus aureus, greater than 32 µg/mL; against Cryptococcus neoformans, greater than 32 µg/mL; against Acinetobacter baumannii, greater than 32 µg/mL; in the test with Candida albicans, 16 µg/mL (≈ 48.1 µM); in the test with Pseudomonas aeruginosa it was greater than 32 µg/mL. Further, the MIC in the test on Klebsiella pneumoniae was greater than 32 µg/mL. This compound yielded a 50% cytotoxic concentration (CC50) with HEK293 of 13.1 µg/mL (≈ 39.4 µM).

`Cc1cc(C)c(Nc2ccccc2-c2ccc([N+](=O)[O-])cc2[N+](=O)[O-])c(C)c1`: the MIC was greater than 32 µg/mL in the test on Escherichia coli; 32 µg/mL (≈ 84.8 µM) in the test with Staphylococcus aureus; greater than 32 µg/mL in the test with Cryptococcus neoformans; greater than 32 µg/mL in the test with Acinetobacter baumannii; 4 µg/mL (≈ 10.6 µM) against Candida albicans; greater than 32 µg/mL in the test with Pseudomonas aeruginosa. The compound further showed an MIC in the test on Klebsiella pneumoniae greater than 32 µg/mL. In the test with HEK293, this compound came in with a cytotoxic concentration (CC50) of 15.7 µg/mL (≈ 41.6 µM).

For the compound `C=C[C@]1(C)C[C@@H](OC(=O)CO)[C@]2(C)[C@H](C)CC[C@]3(CCC(=O)[C@H]32)[C@@H](C)[C@@H]1O` [PLEUROMULIN], the MIC against Escherichia coli was greater than 32 µg/mL; with Staphylococcus aureus, 2 µg/mL (≈ 5.28 µM); against Cryptococcus neoformans, greater than 32 µg/mL; with Acinetobacter baumannii it was greater than 32 µg/mL; in the test with Candida albicans, greater than 32 µg/mL; against Pseudomonas aeruginosa, greater than 32 µg/mL. For the same compound, the MIC against Klebsiella pneumoniae was greater than 32 µg/mL. Further, the CC50 in the test on HEK293 is greater than 32 µg/mL.
